Source: patent publication US20150315188A1, “COMPOUNDS AND METHODS FOR TREATMENT OF HYPERTENSION” (MEDIVATION TECHNOLOGIES, INC., priority 2012, published 2015)

Tests used:
Design in all cases: purchased Milipore (Millipore)
[1] = molecular target: T1, Human adrenergic α2B receptor (Homo sapiens, UniProt P18089); test: Radioligand binding, adrenergic α2B (Protocol Group B); conditions: Protocol Group B; for Percentage inhibition of ligand binding, Adrenergic α2B (30 nM) / inhibition at 0.03 µM: 30 nM compound; for Percentage inhibition of ligand binding, Adrenergic α2B (30 nM): 0.03 µM; for inhibition at 0.01 µM / Percentage inhibition of ligand binding, Adrenergic α2B (10 nM): 10 nM compound; for inhibition at 0.01 µM: read-out: Percentage inhibition of ligand binding, Adrenergic α2B (10 nM); for inhibition at 0.03 µM: read-out: Percentage inhibition of ligand binding, Adrenergic α2B (30 nM); for inhibition at 0.1 µM / Percentage inhibition of ligand binding, Adrenergic α2B (0.1 μM): 0.1 μM compound; for inhibition at 0.1 µM: read-out: Percentage inhibition of ligand binding, Adrenergic α2B (0.1 μM); for Percentage inhibition of ligand binding, Adrenergic α2B (10 nM): 0.01 µM
T1 sequence (P18089 1-450): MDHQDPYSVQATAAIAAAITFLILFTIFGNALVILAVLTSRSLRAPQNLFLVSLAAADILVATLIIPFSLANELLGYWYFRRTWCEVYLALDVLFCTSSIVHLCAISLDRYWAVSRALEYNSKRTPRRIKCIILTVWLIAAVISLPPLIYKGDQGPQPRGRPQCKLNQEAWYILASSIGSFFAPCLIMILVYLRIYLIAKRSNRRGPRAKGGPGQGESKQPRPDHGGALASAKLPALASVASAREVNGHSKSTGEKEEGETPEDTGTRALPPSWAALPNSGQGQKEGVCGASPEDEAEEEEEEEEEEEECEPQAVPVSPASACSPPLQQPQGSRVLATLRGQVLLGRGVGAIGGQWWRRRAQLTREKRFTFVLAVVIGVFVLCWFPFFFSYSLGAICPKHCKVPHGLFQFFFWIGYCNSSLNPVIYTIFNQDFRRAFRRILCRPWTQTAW
How it was run: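 Recombinant human α2B receptor membranes incubated with compounds in 50 mM Tris-HCl pH 7.4, 5 mM MgCl2, 1 mM CaCl2, 0.2% BSA, 1% DMSO vehicle. Non-specific binding defined with 10 μM rauwolscine. Values are percent inhibition of specific binding or estimated Ki.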

[2] = molecular target: T2, Human adrenergic α2A receptor (Homo sapiens, UniProt P08913); test: Radioligand binding, adrenergic α2A (Protocol Group B); conditions: Protocol Group B; for Percentage inhibition of ligand binding, Adrenergic α2A (0.1 μM) / inhibition at 0.1 µM: 0.1 μM compound; for inhibition at 0.1 µM: read-out: Percentage inhibition of ligand binding, Adrenergic α2A (0.1 μM); for inhibition at 0.3 µM / Percentage inhibition of ligand binding, Adrenergic α2A (0.3 μM): 0.3 μM compound; for inhibition at 0.3 µM: read-out: Percentage inhibition of ligand binding, Adrenergic α2A (0.3 μM)
T2 sequence (P08913 1-465): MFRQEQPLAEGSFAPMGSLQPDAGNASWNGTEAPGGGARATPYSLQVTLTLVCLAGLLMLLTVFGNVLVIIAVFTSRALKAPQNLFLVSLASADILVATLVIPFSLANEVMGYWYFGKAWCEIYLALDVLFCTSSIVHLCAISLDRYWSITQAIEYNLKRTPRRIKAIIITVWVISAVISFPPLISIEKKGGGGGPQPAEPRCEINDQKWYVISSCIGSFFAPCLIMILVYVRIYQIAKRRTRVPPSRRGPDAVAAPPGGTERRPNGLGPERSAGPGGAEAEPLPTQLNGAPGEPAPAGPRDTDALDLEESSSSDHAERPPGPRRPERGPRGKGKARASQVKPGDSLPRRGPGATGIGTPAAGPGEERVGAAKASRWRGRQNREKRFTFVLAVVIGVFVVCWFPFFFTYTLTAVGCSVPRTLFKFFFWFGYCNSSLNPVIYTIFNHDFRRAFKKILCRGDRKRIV
How it was run: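 Membranes from recombinant cells expressing the receptor, in 50 mM Tris-HCl pH 7.4 with 5 mM MgCl2, 1 mM CaCl2, 0.2% BSA; compounds incubated with 2 nM [^3H]MK-912 for 60 min at 25° C. Nonspecific binding defined by 10 μM rauwolscine; filtration, counting; percent inhibition of specific binding, or estimated Ki.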

[3] = molecular target: T3, Human adrenergic α1B receptor (Homo sapiens, UniProt P35368); test: Radioligand binding, adrenergic α1B (Protocol Group B); conditions: Protocol Group B; for Percentage inhibition of ligand binding, Adrenergic α1B (0.1 μM) / inhibition at 0.1 µM: 0.1 μM compound; for inhibition at 0.1 µM: read-out: Percentage inhibition of ligand binding, Adrenergic α1B (0.1 μM); for inhibition at 0.3 µM / Percentage inhibition of ligand binding, Adrenergic α1B (0.3 μM): 0.3 μM compound; for inhibition at 0.3 µM: read-out: Percentage inhibition of ligand binding, Adrenergic α1B (0.3 μM)
T3 sequence (P35368 1-520): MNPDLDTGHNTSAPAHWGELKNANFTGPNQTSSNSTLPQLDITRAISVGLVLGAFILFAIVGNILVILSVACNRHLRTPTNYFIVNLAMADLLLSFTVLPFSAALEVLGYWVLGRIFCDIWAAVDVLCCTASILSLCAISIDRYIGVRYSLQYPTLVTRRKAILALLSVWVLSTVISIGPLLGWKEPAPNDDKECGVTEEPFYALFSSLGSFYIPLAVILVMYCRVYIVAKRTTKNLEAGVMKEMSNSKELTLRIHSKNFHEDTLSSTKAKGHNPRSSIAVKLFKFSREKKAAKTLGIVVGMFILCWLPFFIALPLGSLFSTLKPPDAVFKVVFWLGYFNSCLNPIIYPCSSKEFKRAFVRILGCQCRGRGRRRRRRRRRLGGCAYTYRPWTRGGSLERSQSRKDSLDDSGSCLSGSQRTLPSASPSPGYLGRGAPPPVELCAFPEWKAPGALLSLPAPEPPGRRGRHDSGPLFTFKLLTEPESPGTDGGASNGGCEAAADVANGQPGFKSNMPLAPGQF
How it was run: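 Recombinant human α1B membranes incubated with test compound and 0.3 nM [3H]prazosin, 60 min at 25 °C, in 50 mM Tris-HCl pH 7.4, 10 mM MgCl2, 1 mM EDTA; nonspecific binding with 10 μM prazosin. Filter-bound radioactivity counted; values are % inhibition of specific binding or estimated Ki.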

SMILES	Percentage inhibition of ligand binding, Adrenergic α2B (30 nM) [1]	Percentage inhibition of ligand binding, Adrenergic α2A (0.1 μM) [2]	Percentage inhibition of ligand binding, Adrenergic α1B (0.1 μM) [3]	inhibition at 0.01 µM [1]	inhibition at 0.03 µM [1]	inhibition at 0.1 µM [1]	inhibition at 0.1 µM [2]	inhibition at 0.3 µM [2]	inhibition at 0.1 µM [3]	inhibition at 0.3 µM [3]	Percentage inhibition of ligand binding, Adrenergic α2B (10 nM) [1]	Percentage inhibition of ligand binding, Adrenergic α2B (0.1 μM) [1]	Percentage inhibition of ligand binding, Adrenergic α1B (0.3 μM) [3]	Percentage inhibition of ligand binding, Adrenergic α2A (0.3 μM) [2]
Cc1cc(F)cc2c3c(n(CC(C)(O)c4cccnc4)c12)CCN1CCCC31 (stereo not drawn) [75b]	–	–	–	-10%	-4%	-1%	-3%	5%	-1%	1%	–	–	–	–
Cc1ccc2c(c1)c1c(n2CC(O)c2ccccn2)CC2CCCN2C1 (single isomer, unassigned) [45b]	7%	−3%	18%	–	–	–	–	–	–	–	4%	23%	52%	9%
Cc1ccc2c(c1)c1c(n2CC(C)(O)c2ccc(F)cc2)CC2CCC1N2C (single isomer, unassigned) [102c]	−5%	−12%	−4%	–	–	–	–	–	–	–	−14%	−8%	5%	−5%
CN1CCc2c(c3c(Cl)ccc(Cl)c3n2CC(O)c2cccnc2)C1 (stereo not drawn) [Compound No. 17, 2-(6,9-dichloro-2-methyl-3,4-dihydro-1H-pyrido[4,3-b]indol-5 (2H)-yl)-1-(pyridin-3-yl)ethanol]	–	–	–	4%	-12%	-13%	10%	15%	10%	11%	–	–	–	–
Cc1ccc2c(c1)c1c(n2CC(C)(O)c2cnccc2F)CCN(C)C1 (stereo not drawn) [compound 40, 1-(2,8-dimethyl-3,4-dihydro-1H-pyrido[4,3-b]indol-5(2H)-yl)-2-(4-fluoropyridin-3-yl)propan-2-ol]	–	–	–	19%	44%	74%	5%	19%	-6%	3%	–	–	–	–
CC(O)(Cn1c2c(c3cc(F)ccc31)C1CCCN1CC2)c1cccnc1 (stereo not drawn) [57b]	−4%	−6%	−10%	–	–	–	–	–	–	–	−7%	8%	−7%	−7%
Cc1cc(F)c2c(c1)c1c(n2CC(C)(O)c2ccncc2)CC2CCCN2C1 (single isomer, unassigned) [62d]	57%	11%	12%	–	–	–	–	–	–	–	21%	82%	27%	25%

Results, then the molecule that gave them:

Percentage inhibition of ligand binding, Adrenergic α2B (30 nM) [1]	Percentage inhibition of ligand binding, Adrenergic α2A (0.1 μM) [2]	Percentage inhibition of ligand binding, Adrenergic α1B (0.1 μM) [3]	inhibition at 0.01 µM [1]	inhibition at 0.03 µM [1]	inhibition at 0.1 µM [1]	inhibition at 0.1 µM [2]	inhibition at 0.3 µM [2]	inhibition at 0.1 µM [3]	inhibition at 0.3 µM [3]	Percentage inhibition of ligand binding, Adrenergic α2B (10 nM) [1]	Percentage inhibition of ligand binding, Adrenergic α2B (0.1 μM) [1]	Percentage inhibition of ligand binding, Adrenergic α1B (0.3 μM) [3]	Percentage inhibition of ligand binding, Adrenergic α2A (0.3 μM) [2]	SMILES
100%	93%	94%	–	–	–	–	–	–	–	–	–	–	–	OC(Cn1c2c(c3cc(Cl)ccc31)C1CCCN1CC2)c1ccncc1 (single isomer, unassigned) [143b]
−12%	1%	−2%	–	–	–	–	–	–	–	–	–	–	–	OC(Cn1c2c(c3cc(F)cc(F)c31)C1CCCN1CC2)c1ccncc1 (single isomer, unassigned) [144c]
−5%	−16%	−2%	–	–	–	–	-5%	–	–	8%	−3%	12%	–	Cc1ccc2c(c1)c1c(n2CC(O)c2ccncc2)CN(C)C2CCCC12 (single isomer, unassigned) [36a]
8%	0%	−7%	–	–	–	–	–	–	–	−1%	–	9%	2%	OC(Cn1c2c(c3cc(Cl)cc(F)c31)C1CCCN1CC2)c1ccncc1 (single isomer, unassigned) [135d]
–	−6%	−1%	9%	6%	–	–	–	–	–	–	1%	27%	1%	CC(O)(Cn1c2c(c3cc(Cl)cc(F)c31)C1CCCN1CC2)c1ccncc1 (single isomer, unassigned) [52d]
1%	1%	1%	–	–	–	–	–	–	–	–	–	–	–	OC(Cn1c2c(c3cc(F)cc(F)c31)C1CCCN1CC2)c1ccncc1 (single isomer, unassigned) [144d]
